Measurements from PMC11582634, “Discovering the inhibition of YAP/TEAD Hippo signaling pathway via new pyrazolone derivatives: synthesis, molecular docking and biological investigations” (Scientific Reports, 2024).

Key:
[1] = tested on: HCT-116, HepG2, and MCF-7; experiment: MTT assay, whole panel of cancer cell lines (result in words); type: cell-based, human; conditions: 48 h, compared with Sorafenib
Description: (§1) Mammary gland (MCF-7;# ATCC HTB-22), colorectal adenocarcinoma (HCT-116; # ATCC CCL-247)), hepatocellular carcinoma (HepG-2; #ATCC HB-8065), and human lung fibroblast (WI-38; # ATCC CCL-75). The ATCC cell line was obtained via the Holding Company for Biological Products and Vaccines (VACSERA), Cairo, Egypt.
(§2) The MTT test was utilized to ascertain the pyrazolone derivatives’ inhibitory effects on cell growth using the aforementioned cell lines. This colorimetric assay is based on the transformation of yellow tetrazolium bromide (MTT) by mitochondrial succinate dehydrogenase in living cells into a purple formazan derivative. The RPMI-1640 medium was supplemented with 10% fetal bovine serum to cultivate cell lines. At 37° C in an incubator with 5% CO2, 100 units/mL of penicillin and 100 µg/mL of streptomycin were introduced as antibiotics. The cell lines were seeded by 1.0 × 10^4 cells/well in a 96-well plate and kept at 37 °C for 24 h with 5% CO2. Following incubation, the cells were subjected to several concentrations of newly synthesized pyrazolone derivatives and left for 48 h incubation.20 µL of a 5 mg/mL MTT solution was added and incubated for 4 h after the drug treatment. To dissolve the purple formazan produced in each well, 100 µL of dimethyl sulfoxide (DMSO) was applied. The colorimetric test is performed at 630 nm absorbance and recorded using a plate reader (EXL 800, USA)[32].
(§3) GraphPad Prism 6 (San Diego, CA) (GraphPad Prism 6, https://www.graphpad.com/scientific-software/prism/) was used to calculate the IC50 values and the data was expressed as mean ± SE.

[2] = DPPH free radical scavenging (antioxidant) assay; conditions: in-vitro
Protocol: The synthesized pyrazolone derivatives’ capacity to scavenge free radicals DPPH was assessed using a modified Zheleva-Dimitrova technique. Also, the DPPH radical was investigated to L-ascorbic acid with concentrations (10–100 μM) that serving as the standard positive control and the scavenging percent was calculated by Eq. 1.1 [drawing 1]

WI-38 = experiment: MTT assay, WI-38 normal human lung fibroblast cells; type: cell-based; conditions: 48 h, compared with SOR
Description: as §1
as §2, with “Following incubation, the cells were subjected to several concentrations of newly synthesized pyrazolone derivatives and left for 48 h incubation.20 µL of a 5 mg/mL MTT solution was added and incubated for 4 h after the drug treatment. To dissolve the purple formazan produced in each well, 100 µL of dimethyl sulfoxide (DMSO) was applied.” left out
as §3

HCT-116 = experiment: MTT assay, HCT-116 colorectal adenocarcinoma cells; type: cell-based; conditions: Homo sapiens, 48 h, mean ± SE, read-out: IC50 against HCT-116
HepG-2 = experiment: MTT assay, HepG-2 hepatocellular carcinoma cells; type: cell-based; conditions: Homo sapiens, HepG2, 48 h, mean ± SE, read-out: IC50 against HepG-2
MCF-7 = experiment: MTT assay, MCF-7 mammary gland cells; type: cell-based; conditions: Homo sapiens, MCF7, 48 h, mean ± SE, read-out: IC50 against MCF-7
[3] = MTT assay, WI-38 normal human lung fibroblast cells; type: cell-based; conditions: human, WI-38 normal lung fibroblast cells
Description: as §1
as §2, with “Following incubation, the cells were subjected to several concentrations of newly synthesized pyrazolone derivatives and left for 48 h incubation.20 µL of a 5 mg/mL MTT solution was added and incubated for 4 h after the drug treatment. To dissolve the purple formazan produced in each well, 100 µL of dimethyl sulfoxide (DMSO) was applied.” left out
as §3

Row | Compound | IC50 [2] | melting point | IC50 (HCT-116) | IC50 (HepG-2) | IC50 (MCF-7) | IC50 at 48 h [3] | Impact on all panels of cancer cell lines (in words) [1] | Cytotoxic effect on WI-38 normal cells (in words) (WI-38)
1 | 3-amino-4-((4-(6-(4-(dimethylamino)phenyl)-2-oxo-1,2-dihydropyridine-4-yl)phenyl)diazenyl)-1-phenyl-1H-pyrazole-5(4H)-one [Compound 7] | 93.7 ± 0.47 µM | – | – | – | – | – | moderate to weak impact | –
2 | CN(C)c1ccc(C2CC(c3ccc(N=NC4C(=O)N(c5ccccc5)N=C4N)cc3)=NN2c2ccccc2)cc1 (stereo not drawn) [Compound 4, 3-amino-4-((4-(5-(4-(dimethylamino)phenyl)-1-phenyl-4,5-dihydro-1H-pyrazole-3-yl)phenyl)diazenyl)-1-phenyl-1H-pyrazole-5(4H)-one] | 19.88 ± 0.15 µM | 96 °C | 7.67 ± 0.5 µM | 5.85 ± 0.4 µM | 6.97 ± 0.5 µM | – | – | no cytotoxic effects
3 | CC(=O)N1N=C(c2ccc(N=NC3C(=O)N(c4ccccc4)N=C3N)cc2)CC1c1ccc(N(C)C)cc1 (stereo not drawn) [Compound 6, 4-((4-(1-acetyl-5-(4-(dimethylamino)phenyl)-4,5-dihydro-1H-pyrazole-3-yl)phenyl)diazenyl)-3-amino-1-phenyl-1H-pyrazole-5(4H)-one] | 32.4 ± 0.2 µM | 74 °C | 16.5 ± 1.3 µM | 25.6 ± 1.7 µM | 19.8 ± 1.5 µM | – | – | –
4 | O=C1O[C@H]([C@@H](O)CO)C(O)=C1O [L-ascorbic acid, reference compound] | 16.81 ± 0.1 µM | – | – | – | – | – | – | –
5 | CNC(=O)c1cc(Oc2ccc(NC(=O)Nc3ccc(Cl)c(C(F)(F)F)c3)cc2)ccn1 [Sorafenib, reference compound] | – | – | – | – | – | 20.3 ± 0.45 µM | – | –

Further lines, with some results ahead:

Row | IC50 [2] | melting point | IC50 (HCT-116) | IC50 (HepG-2) | IC50 (MCF-7) | IC50 at 48 h [3] | Compound | Impact on all panels of cancer cell lines (in words) [1] | Cytotoxic effect on WI-38 normal cells (in words) (WI-38)
6 | 65.54 ± 0.32 µM | 103 °C | – | – | – | – | CN(C)c1ccc(-c2cc(-c3ccc(N=NC4C(=O)N(c5ccccc5)N=C4N)cc3)nc(=S)[nH]2)cc1 (stereo not drawn) [Compound 8, 3-amino-4-((4-(6-(4-(dimethylamino)phenyl)-2-thioxo-1,2-dihydropyrimidin-4-yl)phenyl)diazenyl)-1-phenyl-1H-pyrazol-5(4H)-one] | moderate to weak impact | –
7 | 47.07 ± 0.24 µM | 139 °C | – | – | – | – | CN(C)c1ccc(C2C=C(c3ccc(/N=N/C4C(=O)N(c5ccccc5)N=C4N)cc3)OC(N)=C2C#N)cc1 (stereo not drawn) [Compound 9, (E)-2-amino-6-(4-((3-amino-5-oxo-1-phenyl-4,5-dihydro-1H-pyrazole-4-yl)diazenyl)phenyl)-4-(4-(dimethylamino)phenyl)-4H-pyran-3-carbonitrile] | moderate to weak impact | –
8 | 74.3 ± 0.38 µM | 116 °C | – | – | – | – | CN(C)c1ccc(-c2cc(-c3ccc(/N=N/C4C(=O)N(c5ccccc5)N=C4N)cc3)nc(N)c2C#N)cc1 (stereo not drawn) [Compound 10, (E)-2-amino-6-(4-((3-amino-5-oxo-1-phenyl-4,5-dihydro-1H-pyrazole-4-yl)diazenyl)phenyl)-4-(4-(dimethylamino)phenyl)nicotinonitrile] | moderate to weak impact | –
9 | 53.67 ± 0.29 µM | 92 °C | – | – | – | – | CN(C)c1ccc(-c2cc(-c3ccc(/N=N/C4C(=O)N(c5ccccc5)N=C4N)cc3)[nH]c(=O)c2C#N)cc1 (stereo not drawn) [Compound 11, (E)-6-(4-((3-amino-5-oxo-1-phenyl-4,5-dihydro-1H-pyrazol-4-yl)diazenyl)phenyl)-4-(4-(dimethylamino)phenyl)-2-oxo-1,2-dihydropyridine-3-carbonitrile] | moderate to weak impact | –
